Molecular target: T1, mGlu5bR (metabotropic glutamate receptor type 5) (Rattus norvegicus, UniProt P31424)
T1 construct: gene Grm5; mGlu5bR^NL: NanoLuc fused at the N terminus of rat mGlu5bR, expressed in HEK293T cells
Assay: NanoBRET saturation binding in living HEK293T cells, displaced by […] MTEP; also NFAT-luciferase NAM assay
Type: cell-based

T1 sequence (P31424 21-1203): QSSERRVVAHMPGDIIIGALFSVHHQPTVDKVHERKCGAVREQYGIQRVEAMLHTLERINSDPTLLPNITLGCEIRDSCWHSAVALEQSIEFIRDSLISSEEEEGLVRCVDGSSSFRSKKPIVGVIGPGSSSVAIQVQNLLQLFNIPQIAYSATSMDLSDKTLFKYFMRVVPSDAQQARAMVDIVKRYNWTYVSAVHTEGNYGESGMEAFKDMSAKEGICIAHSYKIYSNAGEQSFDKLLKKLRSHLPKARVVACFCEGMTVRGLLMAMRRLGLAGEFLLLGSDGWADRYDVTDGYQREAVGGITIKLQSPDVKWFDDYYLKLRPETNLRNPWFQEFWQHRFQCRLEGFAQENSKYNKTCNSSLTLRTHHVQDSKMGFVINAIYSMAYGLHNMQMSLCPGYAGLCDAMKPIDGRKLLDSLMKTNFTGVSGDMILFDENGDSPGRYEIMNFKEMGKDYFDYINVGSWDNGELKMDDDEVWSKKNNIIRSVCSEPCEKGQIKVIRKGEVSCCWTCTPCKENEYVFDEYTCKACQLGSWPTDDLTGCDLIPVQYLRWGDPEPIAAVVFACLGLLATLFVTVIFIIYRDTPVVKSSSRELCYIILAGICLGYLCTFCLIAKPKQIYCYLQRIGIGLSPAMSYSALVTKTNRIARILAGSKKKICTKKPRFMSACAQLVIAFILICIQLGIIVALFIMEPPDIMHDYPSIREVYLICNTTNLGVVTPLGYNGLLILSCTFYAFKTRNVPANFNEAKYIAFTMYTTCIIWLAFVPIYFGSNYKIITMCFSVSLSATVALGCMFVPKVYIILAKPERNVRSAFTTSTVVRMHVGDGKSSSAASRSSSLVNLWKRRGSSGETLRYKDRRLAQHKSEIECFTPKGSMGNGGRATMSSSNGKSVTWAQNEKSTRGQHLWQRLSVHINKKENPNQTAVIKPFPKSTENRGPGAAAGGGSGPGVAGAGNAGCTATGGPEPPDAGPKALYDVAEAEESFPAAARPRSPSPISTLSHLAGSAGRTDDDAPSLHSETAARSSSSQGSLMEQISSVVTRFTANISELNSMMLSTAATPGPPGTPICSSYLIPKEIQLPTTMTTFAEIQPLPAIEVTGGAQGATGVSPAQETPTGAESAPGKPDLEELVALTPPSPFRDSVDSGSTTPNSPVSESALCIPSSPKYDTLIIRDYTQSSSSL

SMILES	Kd [µM]
COc1ccc(C2=[N+]3C(=C(CCCCc4cn(CCOCCOCCOCCOCCOCCNC(=O)COc5cncc(C#Cc6csc(C)n6)c5)nn4)c4ccc(-c5ccc(OC)cc5)n4[B-]3(F)F)C=C2)cc1 [4a, N-(17-(4-(4-(5,5-difluoro-3,7-bis(4-methoxyphenyl)-5H-4λ^4,5λ^4-dipyrrolo [1,2-c:2’,1’-f][1,3,2]diazaborinin-10-yl)butyl)-1H-1,2,3-triazol-1-yl)-3,6,9,12,15-pentaoxaheptadecyl)-2-((5-((2-methylthiazol-4-yl)ethynyl)pyridin-3-yl)oxy)acetamide]	0.84 ± 0.74
COc1ccc(C2=[N+]3C(=C(CCCCc4cn(CCCCCCCCN(C)CCCCCNC(=O)COc5cncc(C#Cc6csc(C)n6)c5)nn4)c4ccc(-c5ccc(OC)cc5)n4[B-]3(F)F)C=C2)cc1 [4e, N-(5-((8-(4-(4-(5,5-difluoro-3,7-bis(4-methoxyphenyl)-5H-4λ^4,5λ^4-dipyrrolo[1,2-c:2’,1’-f][1,3,2]diazaborinin-10-yl)butyl)-1H-1,2,3-triazol-1-yl)octyl)(methyl)amino)pentyl)-2-((5-((2-methylthiazol-4-yl)ethynyl)pyridin-3-yl)oxy)acetamide]	1.4 ± 1.2

Source: paper PMC7180738, “Design, Synthesis and Characterization of a New Series of Fluorescent Metabotropic Glutamate Receptor Type 5 Negative Allosteric Modulators” (Molecules, 2020)
